Among the data in article PMC12606641, “Surface Density of Mono- and Trivalent High-Mannan-Derived Targeting Structures with Different Affinities Impacts Cellular Uptake of Human Serum Albumin-Derived Nanocarriers” (Biomacromolecules, 2025) are IC50, EC50 and Kd values, retold here.

Assay [1] relates to tetrameric extracellular domains (ECDs) of CD209. The arrangement: method as in Li et al. Conditions: TS presented in a trivalent manner, SPR, CD209 ECD; ref Li et al.; read-out: IC50 (binding affinity), trivalent presentation; cited from earlier work.
A further assay deals with T1, CD206 CRD4 (Homo sapiens, UniProt P22897).
T1 construct: Carbohydrate recognition domain 4 of CD206; made in house
T1 sequence (P22897 655-778 limits assumed): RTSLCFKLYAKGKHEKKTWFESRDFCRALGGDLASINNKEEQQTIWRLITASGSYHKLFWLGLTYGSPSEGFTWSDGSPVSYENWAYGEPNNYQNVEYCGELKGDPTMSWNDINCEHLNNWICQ
Nature of the assay: NanoDSF thermal shift binding study, CD206 CRD4. The conditions noted are these: for EC50: CD206 CRD4, 12 μM protein, unfolded fraction evaluated at 53 °C, Hill fit, read-out: EC50 (unfolded fraction vs TS concentration); for Kd: CD206 CRD4, calculated from EC50 with KD=(1−fuo)×(EC50−[P]/2). On the procedure:
(§1) Thermal shift experiments were performed by using a Prometheus NanoDSF instrument (NanoTemper, Munich, Germany). […] Each ligand concentration was measured in triplicate. Samples were subjected to a controlled temperature increase from 20 to 85 °C at a rate of 1.5 °C per minute. Protein unfolding was monitored by measuring the fluorescence emission ratio at 350 and 330 nm. […] Data were analyzed according to the vertical slice method developed by Bai et al. The unfolded fraction was plotted against the ligand concentration, and EC50 values were determined by fitting the data to the Hill equation using GraphPad Prism 8.0.1. K D values were calculated using eq based on the unfolded fraction in the absence of ligand (f uo) and the total protein concentration ([P]). Associated errors were determined according to the standard error propagation rules. KD=(1−fuo)×(EC50−[P]/2) 1 […]
(§2) In this study, NanoDSF was used to investigate the binding affinity of unconjugated monovalent TSs ManN3 and Man3N3, as well as the trivalent TSs (Man)3N3 and (Man3)3N3 for isolated CRDs of CD206 and CD209. Utilization of isolated CRDs instead of the complete tetrameric and octameric receptors allowed an investigation of the affinity without the potential occurrence of avidity effects taking place on the receptor side. […] The observed binding affinities to the isolated CRDs were in the low millimolar range, with all ligands showing stabilizing effects. […] In the solid-phase assay, the biotinylated CRDs were immobilized on streptavidin-coated plates in a defined orientation, likely enhancing the effective presentation of the binding site. In contrast, NanoDSF measurements were conducted with isolated, solubilized monomeric CRDs without surface- or orientation-related effects. Additionally, steric effects and interactions arising from the linker moiety may also impact binding affinity.
3 NanoDSF study for binding of mono- and trivalent TSs ManN3, Man3N3, (Man)3N3, and (Man3)3N3 to the CRDs of CD206 and CD209. (A) Affinity of mono- and trivalent TSs for CRD4 of CD206. (B) Affinity of mono- and trivalent TSs for CRD of CD209. The unfolded fraction of each CRD at different TS concentrations was determined at 53 °C for CD206 and at 63 °C for CD209. The unfolded fraction was plotted against TS concentration, and EC50 values were determined using GraphPad Prism 8.0.1. The respective K D values were calculated from EC50, as described in section , and are given for each case. […]
6 NanoDSF binding study for mono- and trivalent TSs
6.1 Recombinant protein expression and purification.
6.1.1 Carbohydrate recognition domain 4 of CD206
CRD 4 of CD206 was expressed as described previously.50 Briefly, a pT5T expression vector containing CRD4 of CD206 was transformed into competent Escherichia coli (E. coli) BL21 (DE3) cells. The cells were grown in LB medium containing 100 µg/mL ampicillin at 37 °C and 160 rpm until they reached an optical density (OD₆₀₀) of approximately 0.7. Overexpression was induced by adding 0.4 mM Isopropyl-β-D-thiogalactopyranoside (IPTG) for approximately 2.5 hours at 37 °C. Cells were harvested by centrifugation (10.000 × g at 4 °C for 15 minutes) and resuspended in cold buffer A (10 mM Tris-Cl, pH 7.8). Lysis was performed by thoroughly sonicating the cell pellets. Cell debris and inclusion bodies were collected by centrifugation (18,000 × g at 4 °C for 15 minutes), and the supernatant was discarded.
The inclusion bodies were then solubilized in 100 mL of denaturing buffer B (6 M guanidine-HCl, 100 mM Tris-Cl, pH 7.0). After adding 2-mercaptoethanol (10 µL), the suspension was incubated at 4 °C on ice for 30 minutes. Insoluble impurities were removed by centrifugation (18,000 × g at 4 °C for 30 minutes). The supernatant was refolded by three-step dialysis against 2 L of buffer C (0.5 M NaCl, 25 mM Tris-Cl, pH 7.8, 25 mM CaCl₂) at 4 °C overnight. After centrifugation (18,000 × g at 4 °C for […]

The target in another assay is T2, CD209 CRD (Homo sapiens, UniProt Q9NNX6).
T2 construct: Carbohydrate recognition domain of CD209; inferred from HisTrap/imidazole purification; made in house
T2 sequence (Q9NNX6 263-378 limits assumed): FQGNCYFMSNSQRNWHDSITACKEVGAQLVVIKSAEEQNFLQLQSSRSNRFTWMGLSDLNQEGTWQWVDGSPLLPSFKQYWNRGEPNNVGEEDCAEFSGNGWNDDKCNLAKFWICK
Nature of the assay: NanoDSF thermal shift binding study, CD209 CRD. Conditions: for EC50: 12 μM protein, unfolded fraction evaluated at 63 °C, Hill fit, read-out: EC50 (unfolded fraction vs TS concentration); for Kd: calculated from EC50 with KD=(1−fuo)×(EC50−[P]/2). How it is done:
as §1, §2
3 NanoDSF study for binding of mono- and trivalent TSs ManN3, Man3N3, (Man)3N3, and (Man3)3N3 to the CRDs of CD206 and CD209. (A) Affinity of mono- and trivalent TSs for CRD4 of CD206. (B) Affinity of mono- and trivalent TSs for CRD of CD209. The unfolded fraction of each CRD at different TS concentrations was determined at 53 °C for CD206 and at 63 °C for CD209. The unfolded fraction was plotted against TS concentration, and EC50 values were determined using GraphPad Prism 8.0.1. The respective K D values were calculated from EC50, as described in section , and are given for each case.
D (150 mM NaCl, 25 mM Tris-Cl, pH 7.8, 25 mM CaCl₂), the bound protein was eluted with buffer E (150 mM NaCl, 25 mM Tris-Cl, pH 7.8, 2.5 mM EDTA).
6.1.2 Carbohydrate recognition domain of CD209
The recombinant CRD of CD209 was expressed as described previously.55 Briefly, a pET-30 expression vector containing the CRD of CD209 was transformed into competent Escherichia coli (E. coli) BL21 (DE3) cells. The cells were grown in LB medium containing 100 µg/mL kanamycin at 37 °C and 160 rpm until they reached an optical density (OD₆₀₀) of approximately 0.7. Overexpression was induced by adding 0.5 mM IPTG for approximately 3 hours at 37 °C. Cells were harvested by centrifugation (10.000 × g at 4 °C for 15 minutes) and resuspended in cold buffer A (25 mM Tris-Cl, 150 mM NaCl, pH 8) supplemented with lysozyme, one tablet of protease inhibitor (cOmplete ™, Roche), and DNase I. Lysis was performed by thoroughly sonicating the resuspended cell pellets. Cell debris and inclusion bodies were collected by centrifugation (20,000 × g at 4 °C for 1 hour), and the supernatant was discarded. The inclusion bodies were resuspended in buffer A supplemented with 2 M urea and 1% Triton X-100. After a second centrifugation step, the inclusion bodies were solubilized in buffer A supplemented with 6 M guanidine hydrochloride and 0.01 % 2-mercaptoethanol. Insoluble impurities were removed by centrifugation (20.000 × g at 4 °C for 1 hour). The resulting supernatant was dialyzed […]

trimannose: the IC50 – broadly, the concentration at which inhibition is half-maximal – in assay [1] is 0.0024 mM.

Consider `[N-]=[N+]=NCCOCCOCCOCCn1cc(CO[C@H]2O[C@H](CO)[C@@H](O)[C@H](O)[C@@H]2O)nn1` [ManN3], for which, at CD206 CRD4, the EC50 was determined as 3.1 ± 0.6 mM and the Kd – broadly, the equilibrium constant for the complex coming apart – was 1.3 mM. For the same molecule, at CD209 CRD, the EC50 was above 79.8 mM and the equilibrium dissociation constant (Kd) is above 36.3 mM.

For `[N-]=[N+]=NCCOCCOCCOCCn1cc(CO[C@H]2O[C@H](CO[C@H]3O[C@H](CO)[C@@H](O)[C@H](O)[C@@H]3O)[C@@H](O)[C@H](O[C@H]3O[C@H](CO)[C@@H](O)[C@H](O)[C@@H]3O)[C@@H]2O)nn1` [Man3N3], on CD206 CRD4, the EC50 is 14.9 ± 0.97 mM and the Kd is 6.9 mM. Moreover, at CD209 CRD, the EC50 stood at 16.4 ± 1.9 mM and the Kd was 7.2 mM.

Regarding `[N-]=[N+]=NCCOCCOCCOCCC(=O)NC(COCCC(=O)NCCOCCOCCOCCn1cc(CO[C@H]2O[C@H](CO)[C@@H](O)[C@H](O)[C@@H]2O)nn1)(COCCC(=O)NCCOCCOCCOCCn1cc(CO[C@H]2O[C@H](CO)[C@@H](O)[C@H](O)[C@@H]2O)nn1)COCCC(=O)NCCOCCOCCOCCn1cc(CO[C@H]2O[C@H](CO)[C@@H](O)[C@H](O)[C@@H]2O)nn1` [(Man)3N3], the values for the Kd on CD206 CRD4 and at CD209 CRD were 6.8 mM and 10.3 mM, respectively.

For the molecule `[N-]=[N+]=NCCOCCOCCOCCC(=O)NC(COCCC(=O)NCCOCCOCCOCCn1cc(CO[C@H]2O[C@H](CO[C@H]3O[C@H](CO)[C@@H](O)[C@H](O)[C@@H]3O)[C@@H](O)[C@H](O[C@H]3O[C@H](CO)[C@@H](O)[C@H](O)[C@@H]3O)[C@@H]2O)nn1)(COCCC(=O)NCCOCCOCCOCCn1cc(CO[C@H]2O[C@H](CO[C@H]3O[C@H](CO)[C@@H](O)[C@H](O)[C@@H]3O)[C@@H](O)[C@H](O[C@H]3O[C@H](CO)[C@@H](O)[C@H](O)[C@@H]3O)[C@@H]2O)nn1)COCCC(=O)NCCOCCOCCOCCn1cc(CO[C@H]2O[C@H](CO[C@H]3O[C@H](CO)[C@@H](O)[C@H](O)[C@@H]3O)[C@@H](O)[C@H](O[C@H]3O[C@H](CO)[C@@H](O)[C@H](O)[C@@H]3O)[C@@H]2O)nn1` [(Man3)3N3], the Kd on CD206 CRD4 was 3.1 mM; at CD209 CRD it was above 26.6 mM.
